Data published in PubChem BioAssay (NCI).
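These data come from cells grown in 96-well plates and exposed to compound for 48 hours at five concentrations. Definition used: TGI = concentration required for complete inhibition of growth.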

What was measured:
Assay in all cases: NCI tumour cell line growth inhibition, 48 h
KM12 colon = tested on: KM12 colon
BT-549 breast = tested on: BT-549 breast
OVCAR-5 ovarian = tested on: OVCAR-5 ovarian
A498 renal = tested on: A498 renal
DU-145 prostate = tested on: DU-145 prostate
OVCAR-8 ovarian = tested on: OVCAR-8 ovarian
IGROV1 ovarian = tested on: IGROV1 ovarian
MALME-3M melanoma = tested on: MALME-3M melanoma
HOP-62 NSCLC = tested on: HOP-62 NSCLC
NCI/ADR-RES ovarian = tested on: NCI/ADR-RES ovarian
786-0 renal = tested on: 786-0 renal
HOP-92 NSCLC = tested on: HOP-92 NSCLC
HCT-116 colon = tested on: HCT-116 colon
OVCAR-3 ovarian = tested on: OVCAR-3 ovarian
ACHN renal = tested on: ACHN renal
NCI-H522 lung = tested on: NCI-H522 lung
UACC-62 melanoma = tested on: UACC-62 melanoma
M14 melanoma = tested on: M14 melanoma
SK-OV-3 ovarian = tested on: SK-OV-3 ovarian
SNB-75 CNS = tested on: SNB-75 CNS
U251 CNS = tested on: U251 CNS
SK-MEL-28 melanoma = tested on: SK-MEL-28 melanoma
SK-MEL-2 melanoma = tested on: SK-MEL-2 melanoma
COLO 205 colon = tested on: COLO 205 colon
SF-295 CNS = tested on: SF-295 CNS
HL-60(TB) leukemia = tested on: HL-60(TB) leukemia
A549 NSCLC = tested on: A549 NSCLC
NCI-H23 lung = tested on: NCI-H23 lung
RXF 393 renal = tested on: RXF 393 renal
CAKI-1 renal = tested on: CAKI-1 renal
T-47D breast = tested on: T-47D breast
SF-268 CNS = tested on: SF-268 CNS
SR leukemia = tested on: SR leukemia
PC-3 prostate = tested on: PC-3 prostate
SW-620 colon = tested on: SW-620 colon
MCF7 breast = tested on: MCF7 breast
MDA-MB-231 breast = tested on: MDA-MB-231 breast
HT29 colon = tested on: HT29 colon
TK-10 renal = tested on: TK-10 renal
SF-539 CNS = tested on: SF-539 CNS
EKVX NSCLC = tested on: EKVX NSCLC
SK-MEL-5 melanoma = tested on: SK-MEL-5 melanoma
SN12C renal = tested on: SN12C renal
HCT-15 colon = tested on: HCT-15 colon
HCC-2998 colon = tested on: HCC-2998 colon
MDA-MB-435 = tested on: MDA-MB-435
HS 578T breast = tested on: HS 578T breast
NCI-H460 lung = tested on: NCI-H460 lung
K-562 leukemia = tested on: K-562 leukemia
MOLT-4 leukemia = tested on: MOLT-4 leukemia
UACC-257 melanoma = tested on: UACC-257 melanoma
RPMI-8226 leukemia = tested on: RPMI-8226 leukemia
LOX IMVI melanoma = tested on: LOX IMVI melanoma
UO-31 renal = tested on: UO-31 renal
SNB-19 CNS = tested on: SNB-19 CNS
CCRF-CEM leukemia = tested on: CCRF-CEM leukemia
MDA-N = tested on: MDA-N

Measured: TGI

Cc1nc2sccn2c1/C=C1/C(=O)Nc2cccc(Cl)c21
> 100 µM: KM12 colon | BT-549 breast | OVCAR-5 ovarian | A498 renal | DU-145 prostate | OVCAR-8 ovarian | IGROV1 ovarian | MALME-3M melanoma | HOP-62 NSCLC | NCI/ADR-RES ovarian | 786-0 renal | HOP-92 NSCLC | HCT-116 colon | OVCAR-3 ovarian | ACHN renal | NCI-H522 lung | UACC-62 melanoma | M14 melanoma | SK-OV-3 ovarian | SNB-75 CNS | U251 CNS | SK-MEL-28 melanoma | SK-MEL-2 melanoma | COLO 205 colon | SF-295 CNS | HL-60(TB) leukemia | A549 NSCLC | NCI-H23 lung | RXF 393 renal | CAKI-1 renal | T-47D breast | SF-268 CNS | SR leukemia | PC-3 prostate | SW-620 colon | MCF7 breast | MDA-MB-231 breast | HT29 colon | TK-10 renal | SF-539 CNS | EKVX NSCLC | SK-MEL-5 melanoma | SN12C renal | HCT-15 colon | HCC-2998 colon | HS 578T breast | NCI-H460 lung | K-562 leukemia | MOLT-4 leukemia | UACC-257 melanoma | RPMI-8226 leukemia | LOX IMVI melanoma | UO-31 renal | SNB-19 CNS | CCRF-CEM leukemia
39.3 µM: MDA-MB-435
38.1 µM: MDA-N
